In US6030960A, “Method of treating hepatitis virus infections” (priority 1998, dated 2000):
Values joined by “and” are separate entries in the source; they are usually repeats but may differ in a detail not shown here. Equal values may be shown once. “Also recorded” adds a separate entry of the source. Read-outs that look alike come from different tables or passages of the source.

Legend:
Format in all cases: cell-based
[1] = Cytotoxicity of alkyl lipids, neutral red dye uptake (Table 1); conditions: human, hep-g2 cells
Method in brief: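 HepG2 cells carrying tandem HBV genomes, with a G418-resistance plasmid, were given four serial compound concentrations in triplicate in RPMI-1640 for nine days at 37° C, with periodic medium replacement. Viability was measured by 0.01% neutral red uptake (A510) and expressed as percent of untreated control wells ±SD.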

[2] = system: Hepatitis B virus; experiment: Anti-hepatitis B virus activity in HEP-G2 cells persistently infected with HBV (Table 2); conditions: for activity at 10 µM: Hepatitis B virus, HepG2, 216 h, 9 days treatment
Method in brief: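 HBV-persistently infected HepG2 cells were dosed daily with 10 μM compound in 20% FBS medium for 9 days. Medium HBsAg and HBeAg were measured by EIA and virion DNA by slot-blot hybridisation, each relative to untreated controls. EC90 (90% drop in HBV DNA replication intermediates) came from linear regression.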

[3] = system: Hepatitis B virus; experiment: CP-51 against HBV-induced antigen syntheses in HEP-G2 cells persistently infected with HBV (Table 3); conditions: for activity at 10 µM / inhibition at 10 µM: Hepatitis B virus; for activity at 10 µM: HepG2, 216 h, 9 days treatment; for inhibition at 10 µM: HepG2
Protocol: (§1) HEP-G2 cells persistently infected with HBV were treated daily with fresh D-MEM containing 20% FBS and 10 μM compound. After 9 days incubation and treatment, the overlay medium was harvested to assay the quantity of Hepatitis B virus s antigen (HBsAg) and HBeAg by EIA (Abbott Laboratories). The overlay medium was diluted to levels of antigen in the linear range of the assay. Standard curves using dilutions of positive HBsAg and HBeAg controls were included in each assay. Virion DNA was assayed using the method set forth in Korba and Gerin, Antiviral Res., 19, 5,5-70 (1992), incorporated by reference herein. HBV DNA was extracted from the overlay medium containing virus particles and analyzed by a slot-blot hybridization technique using ^32 P-labelled 3.2 Kb Eco R1 HBV DNA fragment by comparisons to HBV standards present on nitrocellulose filters using an AMBIS beta scanner. EC90 values (90% effective concentration, i.e., drug concentration which induces a 90% decrease in the levels of HBV DNA replication intermediates in treated versus control cells) were calculated by linear regression analysis. The relative levels of HBsAg, HBeAg and virion DNA were calulated as a percentage of the average levels obtained from the untreated controls.
In contrast, CP-51 inhibited HBeAg and HBcAg syntheses by 76 and 68%, respectively.

[4] = system: Hepatitis B virus; experiment: Effects of CP-51 on HBV-induced DNA and RNA synthesis (Table 4); conditions: for mrna remaining at 10 µM / activity at 10 µM / inhibition at 10 µM: Hepatitis B virus; for mrna remaining at 10 µM / activity at 10 µM: 9 days treatment
Protocol: as §1
Experiments were performed to determine the effects of CP-51 on HBV induced DNA and RNA syntheses. HEP-G2 cells persistently infected with HBV were treated daily with fresh D-MEM containing 20% FBS and 10 μM compound. After 9 days incubation and treatment the cells and overlay medium were harvested separately to assay the quantity of nucleic acids. Details of the methodology of the assays are given in Section B above. Extracellular virion DNA in untreated cells ranged from 50 to 150 pg/ml in the overlay medium. Intracellular HBV DNA replication intermediates (RI) in untreated cells ranged from 50 to 100 pg/μg cell DNA. Hybridization analysis results in about 1 pg intracellular HBV DNA/μg cellular DNA to 2-3 genomic copies per cell and 1.0 pg of extracellular HBV DNA/ml overlay medium to […] viral particles/ml. HBV RNA was analyzed by Northern blot hybridization analysis using a ^32 P-labeled 3.2 Kb gel-purified cloned genomic probe. Quantitive analysis of intracellular HBV DNA anc 14BV RNA was performed using an AMBIS beta scanner.

[5] = system: Hepatitis B virus; experiment: Effect of alkyl lipids on HBV replication in HBV persistently infected human HEP G2 cells (Table 6); conditions: for Intracellular HBV DNA, Mono (episomal 3.2-3.8 Kb HBV genomes) / Intracellular HBV DNA, RI (replication intermediates): nine days
Method in brief: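 Persistently HBV-infected HepG2 cells exposed to compound for nine days at 37 °C, intracellular HBV DNA analysed 24 h after day nine. Episomal 3.2-3.8 Kb genomes and replication intermediates normalized to integrated HBV DNA; virion DNA detection cut-off 0.1 pg DNA/ml culture medium.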

[6] = system: Hepatitis B virus; experiment: Effect on synthesis of antigen markers in persistently infected human HEP G2 cell cultures (Table 7)
Method in brief: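 Persistently infected HepG2 cells treated with compound for nine days at 37° C. Culture medium then harvested: HBsAg and HBeAg quantified by EIA, virion DNA by hybridisation-based DNA measurement. Sensitivity cut-off 0.1 pg DNA/ml medium.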

[7] = system: Hepatitis B virus; experiment: Effect of alkyl lipid on HBV induction of antigen markers, DNA and RNA in persistently infected human HEP-G2 cell cultures (Table 8); conditions: for activity at 10 µM: Hepatitis B virus, HepG2, 216 h, nine days, untreated controls 100
Protocol: Further analyses were carried out with compound CP-51. Again, the cells were treated for nine days at 37° C. The overlay medium was harvested to measure levels of HBsAg, HBeAg, HBcAg, virion DNA, RI DNA and RNA levels. HBsAg and HBeAg were assayed by EIA (Abbott Laboratories). HBcAg was assayed by a solid phase EIA. HBV RNA was analyzed by Northern blot hybridization using a ^32 P-labelled 3.2 Kb genomic probe. Intracellular HBV RNA and RI HBV DNA was quantitated using a AMBIS beta scanner.

CCCCCCCCCCCCCCCCCC(=O)NCC(COP(=O)([O-])OCC[N+](C)(C)C)OCC (racemic) [CP-51, rac-3-octadecanamido-2-ethyoxy-1-propylphosphocholine]
cytotoxicity at 216 h, 30 µM [1]: 4%
cytotoxicity at 216 h, 100 µM [1]: 29%
viability at 216 h, 3 µM [1]: 101 ± 1%
viability at 216 h, 10 µM [1]: 100 ± 4%
viability at 216 h, 30 µM [1]: 96 ± 2%
viability at 216 h, 100 µM [1]: 71 ± 1%
activity against HBV-induced virion DNA and HBeAg syntheses ([2]; 10 μM, in words): potent inhibitory activity
activity at 10 µM ([2]; 10 μM, read-out: Relative Level of HBeAg): 28%
activity at 10 µM ([2]; 10 μM, read-out: Relative Level of HBsAg): 99%
activity at 10 µM ([2]; 10 μM, read-out: Relative Level of Virion DNA): 2%
anti-HBV activity ([2]; in words): most potent anti-HBV compound; also recorded: most potent anti-HBV activity
inhibitory activity against HBsAg synthesis ([3]; 10 μM, in words): no inhibitory activity
activity at 10 µM ([3]; 10 μM, read-out: Relative Levels of HBcAg): 32%
activity at 10 µM ([3]; 10 μM, read-out: Relative Levels of HBeAg): 24%
activity at 10 µM ([3]; 10 μM, read-out: Relative Levels of HBsAg): 88%
inhibition at 10 µM ([3]; 10 μM, read-out: inhibition of HBcAg synthesis): 68%
inhibition at 10 µM ([3]; 10 μM, read-out: inhibition of HBeAg synthesis): 76%
inhibitory activity against HBeAg and HBcAg (core and e antigen) syntheses ([3]; in words): selective inhibitory activity; also recorded: inhibit the production of the HBV antigens core antigen and e antigen
effect on HBV-induced RNA syntheses ([4]; 10 μM, in words): no significant effects
mrna remaining at 10 µM ([4]; HepG2, 216 h, 10 μM, read-out: Relative Level of 2.1 Kb RNA): 112%
activity at 10 µM ([4]; HepG2, 216 h, 10 μM, read-out: Relative Level of 3.2 Kb DNA): 42%
mrna remaining at 10 µM ([4]; HepG2, 216 h, 10 μM, read-out: Relative Level of 3.6 Kb RNA): 84%
mrna remaining at 10 µM ([4]; HepG2, 216 h, 10 μM, read-out: Relative Level of Total RNA): 112%
activity at 10 µM ([4]; HepG2, 216 h, 10 μM, read-out: Relative Level of Virion DNA): 2%
activity at 10 µM ([4]; HepG2, 216 h, 10 μM, replication intermediates, read-out: Relative Level of HBV RI): 12%
inhibition at 10 µM ([4]; HepG2, 216 h, 10 μM, read-out: inhibition of 3.2 Kb DNA synthesis): 58%
inhibition at 10 µM ([4]; 10 μM, read-out: inhibition of replication intermediates (RI) DNA synthesis): 88%
inhibition at 10 µM ([4]; 10 μM, read-out: inhibition of virion DNA synthesis): 98%
selectivity for HBV-induced antigens and nucleic acids ([4]; in words): selective for inhibiting HBV-induced HBcAg, HBeAg, virion DNA and HBV RI syntheses but not HBsAg or RNA syntheses
Intracellular HBV DNA, Mono (episomal 3.2-3.8 Kb HBV genomes) ([5]; 0.1 μM): 2.7 pg/μg Cell DNA and 2.4 pg/μg Cell DNA and 2.3 pg/μg Cell DNA and 2.5 pg/μg Cell DNA and 2.9 pg/μg Cell DNA and 2.2 pg/μg Cell DNA and 2.6 pg/μg Cell DNA and 2.1 pg/μg Cell DNA
Intracellular HBV DNA, RI (replication intermediates) ([5]; 0.1 μM): 54 pg/μg Cell DNA and 62 pg/μg Cell DNA and 51 pg/μg Cell DNA
HBV Virion DNA ([5]; 1 μM, Day 9): 9 pg/ml Culture Medium and 8 pg/ml Culture Medium and 12 pg/ml Culture Medium and 10 pg/ml Culture Medium and 13 pg/ml Culture Medium and 11 pg/ml Culture Medium and 14 pg/ml Culture Medium and 16 pg/ml Culture Medium
Intracellular HBV DNA, Mono (episomal 3.2-3.8 Kb HBV genomes) ([5]; 1 μM): 2.2 pg/μg Cell DNA and 2.3 pg/μg Cell DNA and 2.4 pg/μg Cell DNA and 2.6 pg/μg Cell DNA and 2.0 pg/μg Cell DNA and 2.1 pg/μg Cell DNA
Intracellular HBV DNA, RI (replication intermediates) ([5]; 1 μM): 12 pg/μg Cell DNA and 16 pg/μg Cell DNA and 17 pg/μg Cell DNA and 14 pg/μg Cell DNA and 13 pg/μg Cell DNA and 23 pg/μg Cell DNA and 21 pg/μg Cell DNA and 18 pg/μg Cell DNA
HBV Virion DNA ([5]; 10 μM, Day 0): 59 pg/ml Culture Medium and 58 pg/ml Culture Medium and 60 pg/ml Culture Medium and 78 pg/ml Culture Medium and 51 pg/ml Culture Medium and 56 pg/ml Culture Medium and 64 pg/ml Culture Medium
HBV Virion DNA ([5]; 10 μM, Day 3): 55 pg/ml Culture Medium and 49 pg/ml Culture Medium and 44 pg/ml Culture Medium and 48 pg/ml Culture Medium and 33 pg/ml Culture Medium and 30 pg/ml Culture Medium and 36 pg/ml Culture Medium and 40 pg/ml Culture Medium
HBV Virion DNA ([5]; 10 μM, Day 6): 20 pg/ml Culture Medium and 13 pg/ml Culture Medium and 10 pg/ml Culture Medium and 18 pg/ml Culture Medium and 12 pg/ml Culture Medium and 11 pg/ml Culture Medium and 14 pg/ml Culture Medium
Intracellular HBV DNA, Mono (episomal 3.2-3.8 Kb HBV genomes) ([5]; 10 μM): 1.7 pg/μg Cell DNA and 1.9 pg/μg Cell DNA and 1.8 pg/μg Cell DNA and 2.0 pg/μg Cell DNA and 1.3 pg/μg Cell DNA and 1.1 pg/μg Cell DNA and 1.2 pg/μg Cell DNA and 1.0 pg/μg Cell DNA
inhibition of HBV virion DNA and intracellular HBV RI DNA levels ([5]; in words, versus ddC): markedly inhibited; also recorded: substantially inhibited
Relative Level of HBeAg ([6]; 10 μM, nine days, 12960 min): 20 % of Untreated Control
Relative Level of HBsAg ([6]; 10 μM, nine days, 12960 min): 78 % of Untreated Control and 114 % of Untreated Control
activity at 10 µM ([6]; Hepatitis B virus, HepG2, 216 h, 10 μM, nine days, read-out: Relative Level of HBeAg): 23%
effect on HBsAg levels released into the culture medium ([6]; in words): None of the compounds tested
reduction in HBeAg and virion DNA levels ([6]; in words): caused a reduction; also recorded: most active compounds in suppressing HBeAg and virion DNA levels
activity at 10 µM ([7]; read-out: Relative Level of HBcAg): 32%
activity at 10 µM ([7]; read-out: Relative Level of HBeAg): 24%
activity at 10 µM ([7]; read-out: Relative Level of HBsAg): 88%
activity at 10 µM ([7]; read-out: Relative Level of Intracellular HBV-DNA): 12%
activity at 10 µM ([7]; read-out: Relative Level of RI DNA): 42%
activity at 10 µM ([7]; read-out: Relative Level of Total RNA): 84%
activity at 10 µM ([7]; read-out: Relative Level of Virion DNA): 2%
inhibition of Hepatitis B core antigen (HBcAg) levels ([7]; in words): significantly inhibited
level or size of HBV induced RNA transcripts of HBsAg ([7]; in words): did not significantly alter
